The record followed here is paper PMC11678425, “(-)-Syringaresinol Exerts an Antidepressant-like Activity in Mice by Noncompetitive Inhibition of the Serotonin Transporter” (Pharmaceuticals, 2024).

The structures appear in SMILES notation.

Assay [1] deals with BDNF, PSD-95, GluA1, and vGluT1. Description: Immunoblot of synaptic proteins in mPFC of CUMS mice. In kind it is in vivo, mouse. The following applies: SYR administration. On the procedure: Figure 7 SYR effects on the expression of c-Fos and synaptic proteins in mPFC. (A) Representative immunohistochemical images of c-Fos expression in mPFC under the indicated treatments. Immunohistochemistry of c-Fos was performed with mPFC slices as described in Section 4. The slices were re-probed with anti-DAPI antibody. Immunofluorescence images for c-Fos (green) and DAPI (blue) were acquired by confocal microscopy. (B) Quantitative analysis for c-Fos expression in mPFC with various treatments. Protein expression is expressed as a percentage of c-Fos fluorescence measured in the control group. Bars represent the mean ± SEM (n = 4). * p < 0.05, ** p < 0.01 compared with the control or CUMS group by one-way ANOVA followed by post hoc tests, respectively. […] (D–G) Quantification of the expression of the synaptic proteins BDNF (D), PSD-95 (E), GluA1 (F), and vGluT1 (G). The expression level is expressed as a percentage of the integrated density obtained from the control group. […]
Synaptic proteins were extracted from mPFC or hippocampus tissues using RIPA lysis buffer, respectively. Expression of the indicated proteins under various treatments was then analyzed by immunoblotting, as previously reported. […] Quantification of immunoreactive protein bands was performed using Image J v1.53u, and GAPDH was used as an internal reference to normalize expression levels of those proteins, respectively.
In general terms: Immunoblotting shows a protein as a band on a membrane.

For assay [2], the target named is T1, hSERT I327A (Homo sapiens, UniProt P31645, I327A).
T1 construct: forward and reverse primers were used to amplify a full-length hSERT; expressed in transfected cells; host or cells: HeLa cells, transient, pcDNA3.1
Description: APP^+ uptake, hSERT I327A. It counts as cell-based. Particulars: S2 site mutant, read-out: SYR IC50 for Transport.

Assay [3] concerns the target T2, hSERT E494Q (Homo sapiens, UniProt P31645, E494Q).
T2 construct: forward and reverse primers were used to amplify a full-length hSERT; expressed in transfected cells; host or cells: HeLa cells, transient, pcDNA3.1
Briefly: APP^+ uptake, hSERT E494Q. It counts as cell-based. Particulars: S2 site mutant, read-out: SYR IC50 for Transport.

The test system of assay [4] is hSERT S1 mutants (Y95F, I172F, S438T). Briefly: ASP^+ binding, S1 site mutants compared with WT. Also noted: species or system human. The following applies: Tyr95 to Phe, Ile172 to Phe, Ser438 to Thr. On the procedure:
HeLa cells were cultured in Dulbecco’s Modified Eagle’s Medium supplemented with 10% fetal bovine serum, 100 units/mL penicillin, and 100 μg/mL streptomycin at 37 °C in a humidified 5% CO2 incubator. Cells grown at ~70% confluence in a 6 cm culture dish were transfected with hSERT cDNA in pcDNA3.1 by lipofectamine 2000. Transfected cells were incubated for 12 h at 37 °C with 5% CO2 and then transferred into 96-well plates. After being grown for an additional 12–16 h, the cells were then assayed for APP^+ uptake or ASP^+ binding.
ASP^+ binding to SERT expressed on the cell surface was measured with digitonin-permeabilized cells as described previously. The cells expressing WT or mutants of hSERT were incubated with 10 μM ASP^+ in the presence of 25 μg/mL digitonin at 22 °C for 5 min. After removing excess ASP^+ by 3× rapid washing, ASP^+ fluorescence retained in the cell membrane was determined by fluorescence spectrometry.
hSERT mutants were generated using the Mut Express II Fast Mutagenesis kit (Vazyme, Nanjing, China). Briefly, forward and reverse primers were used to amplify a full-length hSERT. The PCR products were then digested with restriction enzymes, excised from agarose gels, and ligated into pcDNA3.1. All mutations were confirmed by full-length DNA sequencing.

Assay [5] addresses T3, hSERT Q562N (Homo sapiens, UniProt P31645, Q562N).
T3 construct: forward and reverse primers were used to amplify a full-length hSERT; expressed in transfected cells; host or cells: HeLa
Description: ASP^+ binding, hSERT Q562N. Particulars: S2 site mutant, read-out: SYR IC50 for Binding.

Assay [6] addresses T4, hSERT Q111N (Homo sapiens, UniProt P31645, Q111N).
T4 construct: forward and reverse primers were used to amplify a full-length hSERT; expressed in transfected cells; host or cells: HeLa cells, transient, pcDNA3.1
Briefly: ASP^+ binding, hSERT Q111N. Particulars: S2 site mutant, read-out: SYR IC50 for Binding.

Assay [7] deals with T5, hSERT R564A (Homo sapiens, UniProt P31645, R564A).
T5 construct: forward and reverse primers were used to amplify a full-length hSERT; expressed in transfected cells; host or cells: HeLa
Briefly: APP^+ uptake, hSERT R564A. The following applies: S2 site mutant, read-out: SYR IC50 for Transport. It counts as cell-based.

T3 sequence (P31645 whole entry Q562N): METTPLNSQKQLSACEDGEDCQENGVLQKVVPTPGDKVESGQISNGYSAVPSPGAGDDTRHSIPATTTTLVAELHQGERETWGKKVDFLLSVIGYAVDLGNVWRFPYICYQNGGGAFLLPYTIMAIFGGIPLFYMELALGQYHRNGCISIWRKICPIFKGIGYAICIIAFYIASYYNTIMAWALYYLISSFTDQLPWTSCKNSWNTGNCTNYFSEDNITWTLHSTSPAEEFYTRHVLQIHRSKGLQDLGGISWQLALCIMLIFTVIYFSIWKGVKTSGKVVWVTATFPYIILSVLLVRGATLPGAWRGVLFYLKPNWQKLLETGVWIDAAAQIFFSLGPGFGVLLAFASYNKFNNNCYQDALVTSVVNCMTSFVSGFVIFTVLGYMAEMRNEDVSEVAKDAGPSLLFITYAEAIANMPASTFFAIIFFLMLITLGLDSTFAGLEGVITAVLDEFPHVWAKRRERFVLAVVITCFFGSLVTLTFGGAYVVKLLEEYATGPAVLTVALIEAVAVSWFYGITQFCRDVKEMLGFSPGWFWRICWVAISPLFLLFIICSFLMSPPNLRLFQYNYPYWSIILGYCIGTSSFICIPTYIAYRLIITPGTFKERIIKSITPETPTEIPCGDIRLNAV
T4 sequence (P31645 whole entry Q111N): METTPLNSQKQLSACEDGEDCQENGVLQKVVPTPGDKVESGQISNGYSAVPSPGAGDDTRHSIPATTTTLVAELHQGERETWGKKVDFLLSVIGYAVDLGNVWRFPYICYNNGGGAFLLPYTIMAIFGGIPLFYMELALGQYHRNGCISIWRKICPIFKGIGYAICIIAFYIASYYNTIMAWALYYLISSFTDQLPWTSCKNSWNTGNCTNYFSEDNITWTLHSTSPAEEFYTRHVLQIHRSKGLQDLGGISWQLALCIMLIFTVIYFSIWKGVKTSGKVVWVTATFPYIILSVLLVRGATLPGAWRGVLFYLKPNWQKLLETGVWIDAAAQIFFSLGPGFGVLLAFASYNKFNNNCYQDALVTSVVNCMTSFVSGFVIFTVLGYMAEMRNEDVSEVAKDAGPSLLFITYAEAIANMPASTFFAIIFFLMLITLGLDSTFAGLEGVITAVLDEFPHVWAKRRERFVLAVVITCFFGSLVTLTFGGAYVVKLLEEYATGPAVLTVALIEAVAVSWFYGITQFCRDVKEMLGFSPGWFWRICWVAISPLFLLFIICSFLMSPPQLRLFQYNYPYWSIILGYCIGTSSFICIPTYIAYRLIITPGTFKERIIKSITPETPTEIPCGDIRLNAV
T5 sequence (P31645 whole entry R564A): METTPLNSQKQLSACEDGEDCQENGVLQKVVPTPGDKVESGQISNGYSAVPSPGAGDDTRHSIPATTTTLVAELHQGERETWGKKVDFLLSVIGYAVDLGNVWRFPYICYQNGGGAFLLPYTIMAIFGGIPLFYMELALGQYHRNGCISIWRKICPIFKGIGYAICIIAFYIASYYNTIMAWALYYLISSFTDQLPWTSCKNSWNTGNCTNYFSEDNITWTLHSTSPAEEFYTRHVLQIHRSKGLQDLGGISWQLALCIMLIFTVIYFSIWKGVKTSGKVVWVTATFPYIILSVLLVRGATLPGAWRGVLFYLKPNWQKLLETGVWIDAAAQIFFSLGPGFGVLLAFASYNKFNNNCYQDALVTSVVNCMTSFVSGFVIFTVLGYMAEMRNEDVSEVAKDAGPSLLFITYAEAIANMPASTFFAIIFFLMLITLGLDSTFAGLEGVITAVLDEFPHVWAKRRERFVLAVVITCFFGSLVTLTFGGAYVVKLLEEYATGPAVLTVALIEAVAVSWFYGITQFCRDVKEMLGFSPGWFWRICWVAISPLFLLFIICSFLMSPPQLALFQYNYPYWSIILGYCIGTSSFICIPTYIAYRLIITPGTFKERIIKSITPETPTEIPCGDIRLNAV
T1 sequence (P31645 whole entry I327A): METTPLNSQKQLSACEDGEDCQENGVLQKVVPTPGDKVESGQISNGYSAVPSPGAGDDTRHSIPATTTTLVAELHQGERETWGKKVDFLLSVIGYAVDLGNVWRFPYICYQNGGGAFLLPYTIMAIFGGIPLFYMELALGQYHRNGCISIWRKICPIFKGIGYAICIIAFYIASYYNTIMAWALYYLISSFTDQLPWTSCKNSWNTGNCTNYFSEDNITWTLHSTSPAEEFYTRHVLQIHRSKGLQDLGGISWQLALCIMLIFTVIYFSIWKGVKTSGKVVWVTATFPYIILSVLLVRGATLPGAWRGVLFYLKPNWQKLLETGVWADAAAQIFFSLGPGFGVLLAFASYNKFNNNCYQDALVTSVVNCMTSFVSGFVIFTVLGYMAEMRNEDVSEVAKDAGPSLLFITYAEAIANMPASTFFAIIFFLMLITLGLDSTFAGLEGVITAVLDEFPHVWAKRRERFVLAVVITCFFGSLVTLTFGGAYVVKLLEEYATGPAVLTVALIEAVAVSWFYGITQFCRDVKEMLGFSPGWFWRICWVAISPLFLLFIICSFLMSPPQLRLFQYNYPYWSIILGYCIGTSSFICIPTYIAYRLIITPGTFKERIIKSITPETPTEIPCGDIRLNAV
T2 sequence (P31645 whole entry E494Q): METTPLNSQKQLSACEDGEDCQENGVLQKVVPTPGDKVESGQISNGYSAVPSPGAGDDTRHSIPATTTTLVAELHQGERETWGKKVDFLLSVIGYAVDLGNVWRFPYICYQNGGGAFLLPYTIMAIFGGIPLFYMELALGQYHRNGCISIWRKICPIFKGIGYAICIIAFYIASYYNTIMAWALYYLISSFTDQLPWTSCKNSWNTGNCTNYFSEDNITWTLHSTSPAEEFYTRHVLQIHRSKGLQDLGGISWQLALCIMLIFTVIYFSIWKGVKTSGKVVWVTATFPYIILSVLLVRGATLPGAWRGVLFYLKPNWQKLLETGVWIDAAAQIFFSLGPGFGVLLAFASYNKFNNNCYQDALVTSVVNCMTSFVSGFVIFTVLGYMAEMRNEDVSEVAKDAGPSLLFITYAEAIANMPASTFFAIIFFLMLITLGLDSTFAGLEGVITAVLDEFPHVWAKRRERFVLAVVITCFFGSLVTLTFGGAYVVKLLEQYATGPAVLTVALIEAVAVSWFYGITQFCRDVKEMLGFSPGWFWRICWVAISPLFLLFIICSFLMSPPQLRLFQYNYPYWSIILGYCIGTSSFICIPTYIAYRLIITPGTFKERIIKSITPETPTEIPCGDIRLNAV

`COc1cc([C@@H]2OC[C@@H]3[C@H]2CO[C@H]3c2cc(OC)c(O)c(OC)c2)cc(OC)c1O` [SYR, (-)-syringaresinol]: the “CUMS-induced reduction in expression of synaptic proteins BDNF, PSD-95, GluA1, vGluT1 in mPFC” value in assay [1] is given as “attenuated”. Moreover, the half-inhibitory concentration (IC50) – broadly, the concentration at which inhibition is half-maximal – was determined as 19.5 ± 1.02 µM in assay [2]; 12 ± 2.17 µM in assay [3]; 99.9 ± 2.04 µM in assay [5]; 115 ± 2.47 µM in assay [6]; 14.6 ± 1.59 µM in assay [7]. The “effect of S1 site mutations on SYR inhibition of ASP^+ binding” value in assay [4] is reported as “little effect”.
